Assay results: article PMC4854315, “Discovery of a novel allosteric inhibitor-binding site in ERK5: comparison with the canonical kinase hinge ATP-binding site” (Acta Crystallographica. Section D, Structural Biology, 2016)

How the values were obtained:
Assay in all cases: Z'-LYTE kinase panel
Format in all cases: biochemical
SGK2 = target: T1, SGK2 (Homo sapiens, UniProt Q9HBY8)
T1 construct: purchased ThermoFisher (SelectScreen, Z'-LYTE)
T1 sequence (Q9HBY8 1-367): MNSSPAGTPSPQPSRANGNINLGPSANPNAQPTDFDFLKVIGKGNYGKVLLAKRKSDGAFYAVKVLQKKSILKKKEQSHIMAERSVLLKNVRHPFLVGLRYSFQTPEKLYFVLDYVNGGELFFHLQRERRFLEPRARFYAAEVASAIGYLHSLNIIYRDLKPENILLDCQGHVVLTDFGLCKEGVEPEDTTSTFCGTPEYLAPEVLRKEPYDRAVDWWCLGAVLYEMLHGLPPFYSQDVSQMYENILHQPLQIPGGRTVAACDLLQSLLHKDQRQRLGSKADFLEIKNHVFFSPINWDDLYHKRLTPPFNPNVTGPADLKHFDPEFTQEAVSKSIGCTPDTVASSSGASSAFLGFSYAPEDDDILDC
Method: (§1) Compounds 2, 3 and 5 were tested for activity against the 225 kinases in the ThermoFisher standard kinase panel. The standard Z′-LYTE assay protocol (ThermoFisher) was used to measure the percentage inhibition at 10 µM compound concentration (details are provided in the supporting information).

ROCK1 = target: T2, ROCK1 (Homo sapiens, UniProt Q13464)
T2 construct: purchased ThermoFisher (SelectScreen, Z'-LYTE)
T2 sequence (Q13464 whole entry): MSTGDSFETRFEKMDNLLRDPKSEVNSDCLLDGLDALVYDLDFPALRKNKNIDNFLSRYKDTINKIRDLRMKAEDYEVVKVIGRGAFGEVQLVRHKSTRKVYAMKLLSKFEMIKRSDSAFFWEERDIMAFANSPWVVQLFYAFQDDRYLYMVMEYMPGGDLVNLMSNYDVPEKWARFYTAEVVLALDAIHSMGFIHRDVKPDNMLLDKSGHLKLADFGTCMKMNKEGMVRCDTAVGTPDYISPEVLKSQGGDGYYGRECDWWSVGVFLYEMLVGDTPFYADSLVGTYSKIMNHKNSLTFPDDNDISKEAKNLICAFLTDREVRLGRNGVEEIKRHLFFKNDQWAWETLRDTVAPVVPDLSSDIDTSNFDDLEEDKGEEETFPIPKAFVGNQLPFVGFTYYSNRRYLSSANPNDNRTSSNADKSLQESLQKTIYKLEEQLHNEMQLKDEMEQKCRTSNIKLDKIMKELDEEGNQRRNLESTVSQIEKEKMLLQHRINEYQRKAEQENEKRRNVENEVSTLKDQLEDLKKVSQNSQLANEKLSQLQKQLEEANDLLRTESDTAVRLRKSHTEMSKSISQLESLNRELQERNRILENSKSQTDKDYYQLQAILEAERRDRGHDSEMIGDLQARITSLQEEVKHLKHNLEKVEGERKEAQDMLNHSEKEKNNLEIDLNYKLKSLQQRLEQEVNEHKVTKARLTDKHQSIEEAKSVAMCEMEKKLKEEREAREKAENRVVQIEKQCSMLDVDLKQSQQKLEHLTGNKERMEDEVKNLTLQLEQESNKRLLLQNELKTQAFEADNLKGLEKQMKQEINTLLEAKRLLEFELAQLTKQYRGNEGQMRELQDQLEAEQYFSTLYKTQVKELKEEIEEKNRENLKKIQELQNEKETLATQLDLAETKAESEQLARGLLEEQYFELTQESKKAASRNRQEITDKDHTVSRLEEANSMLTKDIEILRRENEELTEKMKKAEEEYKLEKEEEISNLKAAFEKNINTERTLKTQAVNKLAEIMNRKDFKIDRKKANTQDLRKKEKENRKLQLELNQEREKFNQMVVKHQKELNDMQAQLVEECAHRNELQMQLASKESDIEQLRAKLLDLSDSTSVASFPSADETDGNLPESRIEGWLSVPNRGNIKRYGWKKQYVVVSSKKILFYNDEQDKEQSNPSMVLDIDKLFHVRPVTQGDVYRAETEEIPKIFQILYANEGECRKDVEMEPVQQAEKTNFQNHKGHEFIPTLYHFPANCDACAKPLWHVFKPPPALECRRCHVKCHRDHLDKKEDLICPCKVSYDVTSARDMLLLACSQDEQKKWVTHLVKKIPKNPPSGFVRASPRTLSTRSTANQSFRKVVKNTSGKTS
Method: as §1

CSNK1D (CK1 delta) = target: T3, CSNK1D (CK1 delta) (Homo sapiens, UniProt P48730)
T3 construct: purchased ThermoFisher (SelectScreen, Z'-LYTE)
T3 sequence (P48730 whole entry): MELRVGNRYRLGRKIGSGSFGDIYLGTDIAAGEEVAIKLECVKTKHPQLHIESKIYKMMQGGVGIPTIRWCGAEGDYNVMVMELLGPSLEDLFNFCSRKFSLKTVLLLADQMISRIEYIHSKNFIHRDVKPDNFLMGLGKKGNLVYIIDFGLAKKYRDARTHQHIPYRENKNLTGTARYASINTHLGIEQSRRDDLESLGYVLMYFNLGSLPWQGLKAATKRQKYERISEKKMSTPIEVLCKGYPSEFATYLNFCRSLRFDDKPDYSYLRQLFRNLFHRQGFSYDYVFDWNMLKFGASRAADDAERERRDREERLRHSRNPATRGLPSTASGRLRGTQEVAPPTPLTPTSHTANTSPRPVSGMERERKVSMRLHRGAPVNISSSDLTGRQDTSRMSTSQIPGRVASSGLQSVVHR
Method: as §1

FGFR4 = target: T4, FGFR4 (Homo sapiens, UniProt P22455)
T4 construct: purchased ThermoFisher (SelectScreen, Z'-LYTE)
T4 sequence (P22455 22-802): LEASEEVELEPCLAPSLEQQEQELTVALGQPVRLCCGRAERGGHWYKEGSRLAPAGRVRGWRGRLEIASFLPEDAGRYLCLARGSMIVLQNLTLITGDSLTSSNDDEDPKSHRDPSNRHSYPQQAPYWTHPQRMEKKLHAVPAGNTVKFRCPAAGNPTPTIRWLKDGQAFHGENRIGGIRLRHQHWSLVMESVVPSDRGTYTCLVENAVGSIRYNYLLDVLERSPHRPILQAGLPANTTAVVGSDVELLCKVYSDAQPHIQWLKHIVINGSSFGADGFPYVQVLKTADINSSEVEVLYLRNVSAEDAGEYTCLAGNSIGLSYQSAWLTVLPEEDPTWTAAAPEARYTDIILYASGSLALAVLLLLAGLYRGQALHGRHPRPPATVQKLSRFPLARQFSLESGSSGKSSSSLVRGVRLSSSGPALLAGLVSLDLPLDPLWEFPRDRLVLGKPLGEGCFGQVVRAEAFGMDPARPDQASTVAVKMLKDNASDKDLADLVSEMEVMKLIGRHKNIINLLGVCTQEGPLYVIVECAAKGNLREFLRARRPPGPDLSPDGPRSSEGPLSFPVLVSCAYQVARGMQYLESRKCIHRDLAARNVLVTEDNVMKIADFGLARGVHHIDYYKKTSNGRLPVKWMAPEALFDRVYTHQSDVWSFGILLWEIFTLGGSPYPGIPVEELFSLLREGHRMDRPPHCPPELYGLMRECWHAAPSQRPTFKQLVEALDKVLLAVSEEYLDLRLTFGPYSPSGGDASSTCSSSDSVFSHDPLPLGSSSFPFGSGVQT
Method: as §1

MARK1 (MARK) = target: T5, MARK1 (MARK) (Homo sapiens, UniProt Q9P0L2)
T5 construct: purchased ThermoFisher (SelectScreen, Z'-LYTE)
T5 sequence (Q9P0L2 whole entry): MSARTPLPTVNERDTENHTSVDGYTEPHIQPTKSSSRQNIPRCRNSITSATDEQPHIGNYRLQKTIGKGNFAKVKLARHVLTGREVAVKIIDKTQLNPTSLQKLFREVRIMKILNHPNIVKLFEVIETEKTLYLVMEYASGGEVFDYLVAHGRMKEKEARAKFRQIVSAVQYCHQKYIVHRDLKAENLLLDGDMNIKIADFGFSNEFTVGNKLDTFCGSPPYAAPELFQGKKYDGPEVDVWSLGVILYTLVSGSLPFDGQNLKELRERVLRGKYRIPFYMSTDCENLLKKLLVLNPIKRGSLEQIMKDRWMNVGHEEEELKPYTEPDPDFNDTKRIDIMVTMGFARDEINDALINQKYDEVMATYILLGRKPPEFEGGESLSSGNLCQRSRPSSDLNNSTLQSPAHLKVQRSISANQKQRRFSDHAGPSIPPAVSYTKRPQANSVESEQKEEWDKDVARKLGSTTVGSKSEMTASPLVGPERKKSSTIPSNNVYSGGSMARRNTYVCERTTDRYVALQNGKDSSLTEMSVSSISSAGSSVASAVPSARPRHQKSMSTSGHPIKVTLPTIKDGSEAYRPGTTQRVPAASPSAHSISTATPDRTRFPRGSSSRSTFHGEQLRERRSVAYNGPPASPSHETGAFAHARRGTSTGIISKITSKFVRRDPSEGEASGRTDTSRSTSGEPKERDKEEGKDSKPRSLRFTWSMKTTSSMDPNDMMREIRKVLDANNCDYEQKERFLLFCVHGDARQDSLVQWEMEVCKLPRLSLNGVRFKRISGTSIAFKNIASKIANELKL
Method: as §1

BRSK1 (SAD1) = target: T6, BRSK1 (SAD1) (Homo sapiens, UniProt Q8TDC3)
T6 construct: purchased ThermoFisher (SelectScreen, Z'-LYTE)
T6 sequence (Q8TDC3 1-778): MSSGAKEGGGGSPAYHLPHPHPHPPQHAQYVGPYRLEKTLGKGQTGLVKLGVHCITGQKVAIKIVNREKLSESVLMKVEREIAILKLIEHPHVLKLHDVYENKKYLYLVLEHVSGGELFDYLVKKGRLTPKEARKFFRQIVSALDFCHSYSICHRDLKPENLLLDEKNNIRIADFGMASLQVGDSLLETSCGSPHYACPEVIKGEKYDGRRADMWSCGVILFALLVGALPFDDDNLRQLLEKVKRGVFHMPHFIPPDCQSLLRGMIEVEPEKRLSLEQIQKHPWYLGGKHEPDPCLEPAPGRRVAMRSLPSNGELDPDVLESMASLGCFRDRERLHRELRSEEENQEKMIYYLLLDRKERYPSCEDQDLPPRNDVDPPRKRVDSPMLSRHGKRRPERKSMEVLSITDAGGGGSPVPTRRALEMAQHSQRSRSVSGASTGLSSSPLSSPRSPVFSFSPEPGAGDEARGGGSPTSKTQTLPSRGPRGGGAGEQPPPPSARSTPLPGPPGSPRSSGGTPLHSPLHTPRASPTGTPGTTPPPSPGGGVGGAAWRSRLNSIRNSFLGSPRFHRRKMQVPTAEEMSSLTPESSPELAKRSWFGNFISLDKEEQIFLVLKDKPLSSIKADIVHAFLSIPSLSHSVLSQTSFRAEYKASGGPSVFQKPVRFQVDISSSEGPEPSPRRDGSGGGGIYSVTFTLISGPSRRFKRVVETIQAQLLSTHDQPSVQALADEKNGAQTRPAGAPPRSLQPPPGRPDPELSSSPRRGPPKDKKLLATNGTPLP
Method: as §1

FGFR2 = target: T7, FGFR2 (Homo sapiens, UniProt P21802)
T7 construct: purchased ThermoFisher (SelectScreen, Z'-LYTE)
T7 sequence (P21802 22-821): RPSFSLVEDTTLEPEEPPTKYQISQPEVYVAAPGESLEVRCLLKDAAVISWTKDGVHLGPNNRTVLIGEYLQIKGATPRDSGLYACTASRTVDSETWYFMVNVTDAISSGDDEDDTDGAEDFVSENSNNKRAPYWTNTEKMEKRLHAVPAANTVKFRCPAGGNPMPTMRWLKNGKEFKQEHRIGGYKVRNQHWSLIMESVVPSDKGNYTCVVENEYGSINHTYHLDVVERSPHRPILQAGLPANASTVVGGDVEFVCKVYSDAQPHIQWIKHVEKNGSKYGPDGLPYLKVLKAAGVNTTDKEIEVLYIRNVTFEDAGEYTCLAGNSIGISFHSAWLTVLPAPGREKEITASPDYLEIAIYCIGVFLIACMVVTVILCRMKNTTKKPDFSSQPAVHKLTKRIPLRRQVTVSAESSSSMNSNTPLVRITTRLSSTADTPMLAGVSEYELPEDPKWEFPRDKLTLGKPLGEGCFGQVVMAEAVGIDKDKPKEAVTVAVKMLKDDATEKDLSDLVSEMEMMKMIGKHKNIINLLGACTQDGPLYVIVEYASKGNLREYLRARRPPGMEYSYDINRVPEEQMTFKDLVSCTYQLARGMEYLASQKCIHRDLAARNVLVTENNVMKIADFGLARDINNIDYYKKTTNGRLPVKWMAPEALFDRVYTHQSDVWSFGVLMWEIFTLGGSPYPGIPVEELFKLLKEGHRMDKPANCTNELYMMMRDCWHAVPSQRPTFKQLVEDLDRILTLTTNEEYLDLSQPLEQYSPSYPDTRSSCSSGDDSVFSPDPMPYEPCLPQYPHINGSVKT
Method: as §1

TBK1 = target: T8, TBK1 (Homo sapiens, UniProt Q9UHD2)
T8 construct: purchased ThermoFisher (SelectScreen, Z'-LYTE)
T8 sequence (Q9UHD2 1-729): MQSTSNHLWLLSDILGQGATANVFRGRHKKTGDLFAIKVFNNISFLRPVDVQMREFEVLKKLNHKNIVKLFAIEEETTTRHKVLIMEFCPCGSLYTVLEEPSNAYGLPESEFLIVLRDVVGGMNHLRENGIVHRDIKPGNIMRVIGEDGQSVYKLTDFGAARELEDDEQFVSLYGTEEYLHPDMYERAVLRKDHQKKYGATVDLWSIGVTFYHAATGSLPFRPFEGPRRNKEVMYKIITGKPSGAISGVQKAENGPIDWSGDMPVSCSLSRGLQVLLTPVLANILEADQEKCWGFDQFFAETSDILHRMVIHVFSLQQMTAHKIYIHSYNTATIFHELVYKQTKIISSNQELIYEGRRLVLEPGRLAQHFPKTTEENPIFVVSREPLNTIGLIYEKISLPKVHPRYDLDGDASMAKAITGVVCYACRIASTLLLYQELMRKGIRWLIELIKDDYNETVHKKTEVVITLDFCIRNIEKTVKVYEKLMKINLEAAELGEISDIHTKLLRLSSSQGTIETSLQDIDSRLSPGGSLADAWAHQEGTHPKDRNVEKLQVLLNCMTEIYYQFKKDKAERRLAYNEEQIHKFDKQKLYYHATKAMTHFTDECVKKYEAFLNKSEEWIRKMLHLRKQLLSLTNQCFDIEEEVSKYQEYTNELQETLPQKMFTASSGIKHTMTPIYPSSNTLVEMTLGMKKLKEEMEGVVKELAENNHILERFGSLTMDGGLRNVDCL
Method: as §1

Molecule | inhibition at 10 µM (SGK2) | inhibition at 10 µM (ROCK1) | inhibition at 10 µM (CSNK1D (CK1 delta)) | inhibition at 10 µM (FGFR4) | inhibition at 10 µM (MARK1 (MARK)) | inhibition at 10 µM (BRSK1 (SAD1)) | inhibition at 10 µM (FGFR2) | inhibition at 10 µM (TBK1) | SGK2 % Inhibition (SGK2; 10 µM compound, ATP Km app) | ROCK1 % Inhibition (ROCK1; 10 µM compound, ATP Km app) | CSNK1D (CK1 delta) % Inhibition (CSNK1D (CK1 delta); 10 µM compound, ATP Km app) | FGFR4 % Inhibition (FGFR4; 10 µM compound, ATP Km app) | MARK1 (MARK) % Inhibition (MARK1 (MARK); 10 µM compound, ATP Km app) | BRSK1 (SAD1) % Inhibition (BRSK1 (SAD1); 10 µM compound, ATP Km app) | FGFR2 % Inhibition (FGFR2; 10 µM compound, ATP Km app) | TBK1 % Inhibition (TBK1; 10 µM compound, ATP Km app)
Cc1ncc(-c2nc(Nc3ccc(C(=O)NCCN4CCCCC4)cc3)ncc2F)n1C(C)C [Compound 3] | 66% | 27% | 92% | 19% | 87% | 91% | 88% | 86% | – | – | – | – | – | – | – | –
Cc1cc(Nc2nc(N)nn2C(=O)NC(C)C)ccc1Cl [Compound 5] | -20% | 37% | -2% | 10% | 17% | 35% | 53% | 27% | – | – | – | – | – | – | – | –
XMD8-92 [Compound 2, reference compound] | – | – | – | – | – | – | – | – | 68% | 16% | 4.56% | 19% | 11% | 80% | 33% | 43%
